One may read the Kd as the free concentration of one partner at which half of the binding sites on the other are occupied at equilibrium, for simple one-to-one binding.

Experimental findings from US10501413B2, “Inhibitors of the Notch transcriptional activation complex and methods for use of the same” (UNIVERSITY OF MIAMI, priority 2015, dated 2019) are described below.

Assay [1] has as its system NICD in OE33 and 786-0 cells. Kind of assay: Western analysis of NICD levels. The following applies: OE33 and 786-0 cell lysates. In kind it is cell-based, human. The procedure: The effect of inhibitor treatment on the assembly of the NTC in cells was investigated.
Protein analysis was carried out using conventional SDS-PAGE and transfer techniques. Blots were probed with the indicated antibody (“Ab”), using standard conditions, and detected using enhanced chemiluminescence (“ECL”). The following Ab were used: anti-Notch1 (ab52627, abcam), anti-Notch1^val1744 (4147S, Cell Signaling Technology) and anti-GAPDH (ab9483, Abcam).

A further assay has as its target CSL (Homo sapiens, UniProt Q06330). Put plainly: Surface plasmon resonance binding to CSL. The following applies: SPR, equilibrium response fitted to 1:1 binding model. The procedure:
The inhibitors described herein were subjected to surface plasmon resonance (“SPR”) to determine their binding constants to the NICD and CSL components of the NTC. In particular, the target protein (NICD1) was immobilized on the dextran surface of the SPR sensor chip. Through a microflow system, a solution with the inhibitor was injected over the immobilized protein layer. The inhibitor bound to the immobilized protein, which led to an increase in SPR signal, indicating association of the ligand to the target protein. After 45 seconds, buffer solution was injected on the microfluidics that dissociated the bound complex between the ligand and the inhibitor. As the inhibitor dissociated from the ligand, a decrease in SPR signal was observed. The equilibrium dissociation constant KD was determined by plotting the equilibrium response (Req) as a function of the concentration of the ligand, and fitting the data to a 1:1 binding model. The results are listed in […].
(Surface plasmon resonance follows binding to a sensor surface in real time, without labels.)

Sequence of CSL (Q06330 whole entry): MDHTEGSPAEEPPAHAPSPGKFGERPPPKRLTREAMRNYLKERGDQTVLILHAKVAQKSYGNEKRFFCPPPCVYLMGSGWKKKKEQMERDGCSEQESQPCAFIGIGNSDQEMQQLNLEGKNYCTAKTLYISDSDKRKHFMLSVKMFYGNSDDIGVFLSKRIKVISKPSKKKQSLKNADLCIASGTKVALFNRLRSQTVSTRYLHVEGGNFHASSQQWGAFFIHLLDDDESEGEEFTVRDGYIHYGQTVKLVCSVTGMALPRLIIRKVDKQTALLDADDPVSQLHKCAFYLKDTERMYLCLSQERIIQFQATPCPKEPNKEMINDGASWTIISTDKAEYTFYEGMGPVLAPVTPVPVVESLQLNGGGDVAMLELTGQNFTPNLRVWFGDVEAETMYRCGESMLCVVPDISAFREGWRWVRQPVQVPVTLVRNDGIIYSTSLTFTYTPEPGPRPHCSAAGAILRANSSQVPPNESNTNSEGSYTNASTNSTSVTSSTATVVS

On to `CCOC(=O)COc1ccc(/C=C2\SC(=S)NC2=O)cc1OC` [1-134-83], for which the “levels of NICD in cells” value in assay [1] is given as “does not change”. Further, the Kd at CSL is 8 ± 2 µM.
